According to ChEMBL document CHEMBL2434903, “Synthesis and biological evaluation of furopyrimidine N,O-nucleosides” (Bioorg Med Chem, 2013):
Activity calls are given as the source filed them. No cut-off for these calls is given here.

Legend:
[1] = Cytotoxicity against African green monkey Vero cells assessed as change in cell morphology after 24 to 96 hrs by light microscopic analysis; assay type: cell-based; settings: chlorocebus sabaeus
[2] = Cytostatic activity against African green monkey BSC1 cells by MTT assay; assay type: ADME, cell-based, BSC-1; settings: chlorocebus aethiops
[3] = Cytotoxicity against human MRC5 cells assessed as change in cell morphology after 24 to 96 hrs by light microscopic analysis; assay type: cell-based
Coxsackievirus B4 = assay: Antiviral activity against Coxsackievirus B4 VR-1035 infected in African green monkey Vero cells assessed as inhibition of virus-induced cytopathogenicity; assay type: functional, organism-based
Poliovirus 1 = assay: Antiviral activity against Poliovirus 1 Sabin VR-1562 infected in African green monkey Vero cells assessed as inhibition of virus-induced cytopathogenicity; assay type: functional, cell-based; settings: Human poliovirus 1 strain Sabin
Echovirus E9 = assay: Antiviral activity against Human echovirus 9 VR-1050 infected in African green monkey Vero cells assessed as inhibition of virus-induced cytopathogenicity; assay type: functional, organism-based
Human alphaherpesvirus 2 = assay: Antiviral activity against Herpes simplex virus type 2 VR-734 infected in African green monkey Vero cells assessed as inhibition of virus-induced cytopathogenicity; assay type: functional, organism-based
[4] = Cytostatic activity against African green monkey Vero cells by MTT assay; assay type: ADME, cell-based; settings: chlorocebus sabaeus
[5] = Cytostatic activity against human MRC5 cells by MTT assay; assay type: ADME, cell-based
Human alphaherpesvirus 1 = assay: Antiviral activity against Herpes simplex virus type 1 VR-260 infected in African green monkey Vero cells assessed as inhibition of virus-induced cytopathogenicity; assay type: functional, organism-based
Human betaherpesvirus 5 = assay: Antiviral activity against Cytomegalovirus VR-538 infected in human MRC5 cells assessed as inhibition of virus-induced cytopathogenicity; assay type: functional, organism-based
Human alphaherpesvirus 3 = assay: Antiviral activity against Varicella-zoster virus VR-1367 infected in African green monkey BSC1 cells assessed as inhibition of virus plaque formation; assay type: functional, organism-based; settings: BSC-1
Human adenovirus 2 = assay: Antiviral activity against Adenovirus 2 VR-1080 infected in African green monkey Vero cells assessed as inhibition of virus-induced cytopathogenicity; assay type: functional, organism-based
[6] = Cytotoxicity against African green monkey BSC1 cells assessed as change in cell morphology after 24 to 96 hrs by light microscopic analysis; assay type: cell-based, BSC-1; settings: chlorocebus aethiops

SMILES	MCC [1] [µM]	CC50 [2] [µM]	MCC [3] [µM]	inhibition (Coxsackievirus B4)	inhibition (Poliovirus 1)	inhibition (Echovirus E9)	inhibition (Human alphaherpesvirus 2)	CC50 [4] [µM]	CC50 [5] [µM]	inhibition (Human alphaherpesvirus 1)	inhibition (Human betaherpesvirus 5)	inhibition (Human alphaherpesvirus 3)	inhibition (Human adenovirus 2)	MCC [6] [µM]
CN1OC(n2cc3ccoc3nc2=O)CC1CO (racemic)	> 500	62	> 250	inactive	inactive	inactive	inactive	125	> 250	inactive	inactive	inactive	inactive	> 250
Nc1nc2c(ncn2COCCO)c(=O)[nH]1	–	–	–	Active	Active	Active	Active	–	–	Active	Active	Active	Active	–
CCCCCc1ccc(-c2cc3cn(C4CC(CO)N(C)O4)c(=O)nc3o2)cc1 (racemic)	6	0.7	6	inactive	inactive	inactive	inactive	3	1.5	inactive	inactive	inactive	inactive	6
COc1ccc(-c2cc3cn(C4CC(CO)N(C)O4)c(=O)nc3o2)cc1 (racemic)	62.5	7	62	inactive	inactive	inactive	inactive	62.5	31.2	inactive	inactive	inactive	inactive	62
CN1OC(n2cc3cc(-c4ccccc4)oc3nc2=O)CC1CO (racemic)	125	32	> 250	inactive	inactive	inactive	inactive	125	125	inactive	inactive	inactive	inactive	> 250
CCCc1cc2cn(C3CC(CO)N(C)O3)c(=O)nc2o1 (stereo not drawn)	> 500	7	> 250	inactive	inactive	inactive	inactive	31.2	31.2	inactive	inactive	inactive	inactive	> 250
